Experiments:
CCRF-CEM = assay: NCI anticancer screening, Leukemia CCRF-CEM; assay type: cell-based; settings: Homo sapiens, read-out: % Growth Inhibition (GI %)
From the text: (§1) The compound has been processed according to standard method NCI-60 Human Tumor Cell Lines Screen for organic compound at development therapeutic program (DTP). Requests for access to this national resource can be submitted online at: […]

HL-60(TB) = assay: NCI anticancer screening, Leukemia HL-60(TB); assay type: cell-based; settings: Homo sapiens, read-out: % Growth Inhibition (GI %)
From the text: as §1

K-562 = assay: NCI anticancer screening, Leukemia K-562; assay type: cell-based; settings: Homo sapiens, K562; K-562, 10 μM; read-out: % Growth Inhibition (GI %)
From the text: as §1

A549/ATCC = assay: NCI anticancer screening, Non-Small Cell Lung Cancer A549/ATCC; assay type: cell-based; settings: Homo sapiens, read-out: % Growth Inhibition (GI %)
From the text: as §1

HOP-62 = assay: NCI anticancer screening, Non-Small Cell Lung Cancer HOP-62; assay type: cell-based; settings: Homo sapiens; HOP-62, 10 μM; read-out: % Growth Inhibition (GI %)
From the text: as §1

NCI-H23 = assay: NCI anticancer screening, Non-Small Cell Lung Cancer NCI-H23; assay type: cell-based; settings: Homo sapiens; NCI-H23, 10 μM; read-out: % Growth Inhibition (GI %)
From the text: as §1

NCI-H322M = assay: NCI anticancer screening, Non-Small Cell Lung Cancer NCI-H322M; assay type: cell-based; settings: Homo sapiens, read-out: % Growth Inhibition (GI %)
From the text: as §1

HCC-2998 = assay: NCI anticancer screening, Colon Cancer HCC-2998; assay type: cell-based; settings: Homo sapiens; HCC-2998, 10 μM; read-out: % Growth Inhibition (GI %)
From the text: as §1

HCT-116 = assay: NCI anticancer screening, Colon Cancer HCT-116; assay type: cell-based; settings: Homo sapiens; HCT-116, 10 μM; read-out: % Growth Inhibition (GI %)
From the text: as §1

HCT-15 = assay: NCI anticancer screening, Colon Cancer HCT-15; assay type: cell-based; settings: Homo sapiens; HCT-15, 10 μM; read-out: % Growth Inhibition (GI %)
From the text: as §1

HT29 = assay: NCI anticancer screening, Colon Cancer HT29; assay type: cell-based; settings: Homo sapiens, HT-29; HT29, 10 μM; read-out: % Growth Inhibition (GI %)
From the text: as §1

KM12 = assay: NCI anticancer screening, Colon Cancer KM12; assay type: cell-based; settings: Homo sapiens; KM12, 10 μM; read-out: % Growth Inhibition (GI %)
From the text: as §1

SW-620 = assay: NCI anticancer screening, Colon Cancer SW-620; assay type: cell-based; settings: Homo sapiens; SW-620, 10 μM; read-out: % Growth Inhibition (GI %)
From the text: as §1

SF-268 = assay: NCI anticancer screening, CNS Cancer SF-268; assay type: cell-based; settings: Homo sapiens; SF-268, 10 μM; read-out: % Growth Inhibition (GI %)
From the text: as §1

SF-295 = assay: NCI anticancer screening, CNS Cancer SF-295; assay type: cell-based; settings: Homo sapiens; SF-295, 10 μM; read-out: % Growth Inhibition (GI %)
From the text: as §1

SNB-75 = assay: NCI anticancer screening, CNS Cancer SNB-75; assay type: cell-based; settings: Homo sapiens; SNB-75, 10 μM; read-out: % Growth Inhibition (GI %)
From the text: as §1

U251 = assay: NCI anticancer screening, CNS Cancer U251; assay type: cell-based; settings: Homo sapiens, U-251; U251, 10 μM; read-out: % Growth Inhibition (GI %)
From the text: as §1

LOX IMVI = assay: NCI anticancer screening, Melanoma LOX IMVI; assay type: cell-based; settings: Homo sapiens, read-out: % Growth Inhibition (GI %)
From the text: as §1

MALME-3M = assay: NCI anticancer screening, Melanoma MALME-3M; assay type: cell-based; settings: Homo sapiens, read-out: % Growth Inhibition (GI %)
From the text: as §1

M14 = assay: NCI anticancer screening, Melanoma M14; assay type: cell-based; settings: Homo sapiens; M14, 10 μM; read-out: % Growth Inhibition (GI %)
From the text: as §1

MDA-MB-435 = assay: NCI anticancer screening, Melanoma MDA-MB-435; assay type: cell-based; settings: Homo sapiens; MDA-MB-435, 10 μM; read-out: % Growth Inhibition (GI %)
From the text: as §1

SK-MEL-28 = assay: NCI anticancer screening, Melanoma SK-MEL-28; assay type: cell-based; settings: Homo sapiens; SK-MEL-28, 10 μM; read-out: % Growth Inhibition (GI %)
From the text: as §1

SK-MEL-5 = assay: NCI anticancer screening, Melanoma SK-MEL-5; assay type: cell-based; settings: Homo sapiens; SK-MEL-5, 10 μM; read-out: % Growth Inhibition (GI %)
From the text: as §1

IGROV1 = assay: NCI anticancer screening, Ovarian Cancer IGROV1; assay type: cell-based; settings: Homo sapiens, IGROV-1; IGROV1, 10 μM; read-out: % Growth Inhibition (GI %)
From the text: as §1

OVCAR-4 = assay: NCI anticancer screening, Ovarian Cancer OVCAR-4; assay type: cell-based; settings: Homo sapiens; OVCAR-4, 10 μM; read-out: % Growth Inhibition (GI %)
From the text: as §1

OVCAR-5 = assay: NCI anticancer screening, Ovarian Cancer OVCAR-5; assay type: cell-based; settings: Homo sapiens; OVCAR-5, 10 μM; read-out: % Growth Inhibition (GI %)
From the text: as §1

OVCAR-8 = assay: NCI anticancer screening, Ovarian Cancer OVCAR-8; assay type: cell-based; settings: Homo sapiens; OVCAR-8, 10 μM; read-out: % Growth Inhibition (GI %)
From the text: as §1

NCI/ADR-RES = assay: NCI anticancer screening, Ovarian Cancer NCI/ADR-RES; assay type: cell-based; settings: Homo sapiens, read-out: % Growth Inhibition (GI %)
From the text: as §1

786-0 = assay: NCI anticancer screening, Renal Cancer 786-0; assay type: cell-based; settings: Homo sapiens; 786-0, 10 μM; read-out: % Growth Inhibition (GI %)
From the text: as §1

ACHN = assay: NCI anticancer screening, Renal Cancer ACHN; assay type: cell-based; settings: Homo sapiens, read-out: % Growth Inhibition (GI %)
From the text: as §1

RXF 393 = assay: NCI anticancer screening, Renal Cancer RXF 393; assay type: cell-based; settings: Homo sapiens; RXF 393, 10 μM; read-out: % Growth Inhibition (GI %)
From the text: as §1

SN12C = assay: NCI anticancer screening, Renal Cancer SN12C; assay type: cell-based; settings: Homo sapiens, read-out: % Growth Inhibition (GI %)
From the text: as §1

DU-145 = assay: NCI anticancer screening, DU-145; assay type: cell-based; settings: Homo sapiens; DU-145, 10 μM; read-out: % Growth Inhibition (GI %)
From the text: as §1

MCF7 = assay: NCI anticancer screening, Breast Cancer MCF7; assay type: cell-based; settings: Homo sapiens; MCF7, 10 μM; read-out: % Growth Inhibition (GI %)
From the text: as §1

HS 578T = assay: NCI anticancer screening, Breast Cancer HS 578T; assay type: cell-based; settings: Homo sapiens, read-out: % Growth Inhibition (GI %)
From the text: as §1

BT-549 = assay: NCI anticancer screening, Breast Cancer BT-549; assay type: cell-based; settings: Homo sapiens; BT-549, 10 μM; read-out: % Growth Inhibition (GI %)
From the text: as §1

MDA-MB-468 = assay: NCI anticancer screening, Breast Cancer MDA-MB-468; assay type: cell-based; settings: Homo sapiens, read-out: % Growth Inhibition (GI %)
From the text: as §1

MDA-MB 231 cells = settings: for inhibition: 5 µM
Description: Anticancer effect of the above-mentioned compounds was assayed using three human cancer cell lines. Triple negative breast cancer cell line (MDA-MB 231) and prostate cancer cell line (PC3) were cultured in DMEM (Lonza, USA) supplemented with 10% FBS. All cancer cells (4x10^3 cells/well) were seeded in sterile 96-well plates. After 24h, serial concentrations of the tested compounds were incubated with three cancer cell lines for 72 h at 37 °C in 5% CO2 incubator. […] The half maximal inhibitory concentration (IC50) values were calculated using the Graphpad Instat software.

| Compound | inhibition at 10 µM (CCRF-CEM) [%] | inhibition at 10 µM (HL-60(TB)) [%] | inhibition at 10 µM (K-562) [%] | inhibition at 10 µM (A549/ATCC) [%] | inhibition at 10 µM (HOP-62) [%] | inhibition at 10 µM (NCI-H23) [%] | inhibition at 10 µM (NCI-H322M) [%] | inhibition at 10 µM (HCC-2998) [%] | inhibition at 10 µM (HCT-116) [%] | inhibition at 10 µM (HCT-15) [%] | inhibition at 10 µM (HT29) [%] | inhibition at 10 µM (KM12) [%] | inhibition at 10 µM (SW-620) [%] | inhibition at 10 µM (SF-268) [%] | inhibition at 10 µM (SF-295) [%] | inhibition at 10 µM (SNB-75) [%] | inhibition at 10 µM (U251) [%] | inhibition at 10 µM (LOX IMVI) [%] | inhibition at 10 µM (MALME-3M) [%] | inhibition at 10 µM (M14) [%] | further results |
| --- | --- | --- | --- | --- | --- | --- | --- | --- | --- | --- | --- | --- | --- | --- | --- | --- | --- | --- | --- | --- | --- |
| COc1cc([C@@H]2C3CSCN3[C@]3(C(=O)Nc4ccccc43)[C@H]2C(=O)c2nc3ccccc3[nH]2)cc(OC)c1OC (stereo partly drawn) [Compound 6i, (3S,6′R)-6'-(1H-Benzo [d]imidazole-2-carbonyl)-7'-(3,4,5-trimethoxyphenyl)-3′,6′,7′,7a′-tetrahydro-1′H-spiro [indoline-3.5′-pyrrolo [1,2-c]thiazol]-2-one] | 104 | 103 | 94.2 | 89.4 | 104 | 104 | 93.1 | 108 | 102 | 105 | 107 | 101 | 99.5 | 99.2 | 95.2 | 94.1 | 103 | 101 | 99.8 | 107 | inhibition at 10 µM (MDA-MB-435): 101%; inhibition at 10 µM (SK-MEL-28): 107%; inhibition at 10 µM (SK-MEL-5): 103%; inhibition at 10 µM (IGROV1): 95.8%; inhibition at 10 µM (OVCAR-4): 100%; inhibition at 10 µM (OVCAR-5): 94.3%; inhibition at 10 µM (OVCAR-8): 99.3%; inhibition at 10 µM (NCI/ADR-RES): 104%; inhibition at 10 µM (786-0): 99.4%; inhibition at 10 µM (ACHN): 107%; inhibition at 10 µM (RXF 393): 109%; inhibition at 10 µM (SN12C): 99%; inhibition at 10 µM (DU-145): 111%; inhibition at 10 µM (MCF7): 99.9%; inhibition at 10 µM (HS 578T): 102%; inhibition at 10 µM (BT-549): 93.7%; inhibition at 10 µM (MDA-MB-468): 99.6%; melting point: 245 to 247 °C; inhibition (MDA-MB 231 cells): 46 ± 1.41% |
| O=C(c1nc2ccccc2[nH]1)[C@H]1[C@H](c2ccccc2O)C2CSCN2[C@]12C(=O)Nc1ccccc12 (stereo partly drawn) [Compound 6j, (3S,6′R)-6'-(1H-Benzo [d]imidazole-2-carbonyl)-7'-(2-hydroxyphenyl)-3′,6′,7′,7a′-tetrahydro-1′H-spiro [indoline-3.5′-pyrrolo [1,2-c]thiazol]-2-one] | 101 | 103 | 96.4 | 98.7 | 85.2 | 96.5 | 99.8 | 103 | 96.3 | 101 | 99.3 | 82.5 | 95.4 | 91.7 | 96.3 | 73.1 | 95.8 | 89.2 | 105 | 95.1 | inhibition at 10 µM (MDA-MB-435): 92.7%; inhibition at 10 µM (SK-MEL-28): 99%; inhibition at 10 µM (SK-MEL-5): 94%; inhibition at 10 µM (IGROV1): 92.1%; inhibition at 10 µM (OVCAR-4): 86.5%; inhibition at 10 µM (OVCAR-5): 102%; inhibition at 10 µM (OVCAR-8): 97.7%; inhibition at 10 µM (NCI/ADR-RES): 95.9%; inhibition at 10 µM (786-0): 106%; inhibition at 10 µM (ACHN): 92.2%; inhibition at 10 µM (RXF 393): 88.2%; inhibition at 10 µM (SN12C): 94.3%; inhibition at 10 µM (DU-145): 98.7%; inhibition at 10 µM (MCF7): 92.4%; inhibition at 10 µM (HS 578T): 85%; inhibition at 10 µM (BT-549): 93.6%; inhibition at 10 µM (MDA-MB-468): 102%; melting point: 186 to 188 °C; IC50 (MDA-MB 231 cells): 4.665 ± 0.009 µM; inhibition (MDA-MB 231 cells): 40.8 ± 1.63% |
| CN(C)c1ccc([C@@H]2C3CSCN3[C@]3(C(=O)Nc4ccccc43)[C@H]2C(=O)c2nc3ccccc3[nH]2)cc1 (stereo partly drawn) [Compound 6k, (3S,6′R)-6'-(1H-Benzo [d]imidazole-2-carbonyl)-7'-(4-(dimethylamino)phenyl)-3′,6′,7′,7a′-tetrahydro-1′H-spiro [indoline-3.5′-pyrrolo [1,2-c]thiazol]-2-one] | 99.9 | 99.5 | 92.2 | 94.2 | 95.7 | 94.3 | 99.8 | 102 | 102 | 99.1 | 99.3 | 95.7 | 100 | 92.1 | 103 | 88.3 | 103 | 94.2 | 94.7 | 103 | inhibition at 10 µM (MDA-MB-435): 96.8%; inhibition at 10 µM (SK-MEL-28): 96.1%; inhibition at 10 µM (SK-MEL-5): 98.2%; inhibition at 10 µM (IGROV1): 89.8%; inhibition at 10 µM (OVCAR-4): 91.5%; inhibition at 10 µM (OVCAR-5): 95.6%; inhibition at 10 µM (OVCAR-8): 105%; inhibition at 10 µM (NCI/ADR-RES): 96%; inhibition at 10 µM (786-0): 103%; inhibition at 10 µM (ACHN): 99%; inhibition at 10 µM (RXF 393): 99.7%; inhibition at 10 µM (SN12C): 94%; inhibition at 10 µM (DU-145): 104%; inhibition at 10 µM (MCF7): 93.6%; inhibition at 10 µM (HS 578T): 91.7%; inhibition at 10 µM (BT-549): 108%; inhibition at 10 µM (MDA-MB-468): 99.8%; melting point: 178 to 180 °C; IC50 (MDA-MB 231 cells): 4 ± 0.249 µM; inhibition (MDA-MB 231 cells): 37.6 ± 2.61% |

Source: paper PMC11033320, “Activation of p53 signaling and regression of breast and prostate carcinoma cells by spirooxindole-benzimidazole small molecules” (Frontiers in Pharmacology, 2024)
